Test results published in patent US9453226B2, “Protection of cells from Alu-RNA-induced degeneration and inhibitors for protecting cells” (UNIVERSITY OF KENTUCKY RESEARCH FOUNDATION, priority 2011, dated 2016).

Columns and labels:
IL-18 = IL-18 maturation in RPE cell lysates of wild-type mice (Western blot); format: in vivo; details: WT mice, peptide intravitreous
Protocol: siRNAs formulated in siRNA buffer (20 mM KCL, 0.2 mM MgCl2 in HEPES buffer at pH 7.5; Dharmacon) or phosphate buffered saline (PBS; Sigma-Aldrich); the TLR4 antagonist Ultra Pure Rhodobacter sphaeroides LPS (LPS-RS, InvivoGen), a peptide inhibitor of MyD88 homodimerization IMG-2005 (IMGENEX), control inhibitor (IMGENEX), recombinant IL-18 (Medical & Biological Laboratories), neutralizing rat antibodies against mouse IL-1β (IMGENEX), neutralizing rat antibodies against mouse IL-18 (Medical & Biological Laboratories), isotype control IgGs (R&D Systems or eBioscience as appropriate), Caspase-1 inhibitor Z-WEHD-FMK (R&D Systems), Caspase control inhibitor Z-FA-FMK (R&D Systems), DPI (Enzo Life Sciences), Mito-TEMPO (Enzo Life Sciences), MitoQ and dTPP (both adsorbed to cyclodextrin and provided by M.P. Murphy, MRC Mitochondrial Biology Unit), and gp91ds-tat and scrambled gp91 ds-tat (both Anaspec), were dissolved in phosphate buffered saline (PBS; Sigma-Aldrich) or dimethyl sulfoxide (DMSO; Sigma-Aldrich), and injected into the vitreous humor in a total volume of 1 μL with a 33-gauge Exmire microsyringe (Ito Corporation). […] As a control, Luc siRNA-chol (17+2 nt) was used with identical dosages. […]

[1] = test system: Dicer1 f/f mouse RPE cells; experiment: Loss of viability of Dicer1 f/f mouse RPE cells treated with Ad-Cre; format: cell-based
Protocol: Cells were plated at density of 15×10^3/cm^2 and after 16 h, at approximately 50% confluence, were infected with AdCre or AdNull (Vector Laboratories) with a multiplicity of infection of 1,000.

RPE = experiment: Alu RNA-induced RPE degeneration in wild-type mice, inhibitors given intravitreously; format: in vivo; details: WT mice; subretinal Alu RNA; inhibitor intravitreous
Protocol: Subretinal injection and imaging. Subretinal injections (1 μL) were performed using a Pico-Injector (PLI-100, Harvard Apparatus). Plasmids were transfected in vivo using 10% Neuroporter (Genlantis). Fundus imaging was performed on a TRC-50 IX camera (Topcon) linked to a digital imaging system (Sony). RPE flat mounts were immunolabeled using antibodies against zonula occludens-1 (Invitrogen).
Retinal photographs of dilated mouse eyes were taken with a TRC-50 IX camera (Topcon) linked to a digital imaging system (Sony).
Human eyes fixed in 2-4% paraformaldehyde were prepared as eyecups, cryoprotected in 30% sucrose, embedded in optimal cutting temperature compound (Tissue-Tek OCT; Sakura Finetek), and cryosectioned into 10 μm sections. Depigmentation was achieved using 0.25% potassium permanganate and 0.1% oxalic acid. Immunohistochemical staining was performed with the rabbit antibody against NLRP3 (1:100, Sigma Aldrich) or rabbit antibody against Caspase-1 (prediluted, AbCam). Isotype IgG was substituted for the primary antibody to assess the specificity of the staining. Bound antibody was detected with biotin-conjugated secondary antibodies, followed by incubation with ABC reagent and visualized by Vector Blue (Vector Laboratories). Levamisole (Vector Laboratories) was used to block endogenous alkaline phosphatase activity. Slides were washed in PBS, counterstained with neutral red (Fisher Scientific), rinsed with deionized water, air dried, and then mounted in Vectamount (Vector Laboratories). Fluorescent labeling of human tissue was performed with the rabbit antibody against PYCARD (1:50, Clone N-15, Santa Cruz Biotechnology) Immunolabeling was visualized by fluorescently conjugated anti-rabbit secondary antibody (Invitrogen). Tissue autofluorescence was quenched by incubating the sections in 0.3% Sudan black (Fisher Scientific). Sections were mounted in Vectashield with DAPI (Vector Laboratories). Mouse RPE/choroid flat mounts were fixed with 4% paraformaldehyde or 100% methanol, stained with rabbit antibodies against human zonula occludens-1 (1:100, Invitrogen) and visualized with Alexa594 (Invitrogen). All images were obtained using the Leica SP-5 or Zeiss Axio Observer Z1 microscopes.
Subretinal injections (1 μL) in mice were performed using a Pico-Injector (PLI-100, Harvard Apparatus). In vivo transfection of plasmids coding for two different Alu sequences (pAlu) or empty control vector (pNull) (Bennett et al., 2008; Kaneko et al., 2011; Shaikh et al., 1997) was achieved using 10% Neuroporter (Genlantis). AAV1-BEST1-Cre (Alexander and Hauswirth, 2008) or AAV1-BEST1-GFP were injected at 1.0×10^11 pfu/mL and in vitro transcribed Alu RNA was injected at 0.3 mg/mL.
siRNAs formulated in siRNA buffer (20 mM KCL, 0.2 mM MgCl2 in HEPES buffer at pH 7.5; Dharmacon) or phosphate buffered saline (PBS; Sigma-Aldrich); the TLR4 antagonist Ultra Pure Rhodobacter sphaeroides LPS (LPS-RS, InvivoGen), a peptide inhibitor of MyD88 homodimerization IMG-2005 (IMGENEX), control inhibitor (IMGENEX), recombinant IL-18 (Medical & Biological Laboratories), neutralizing rat antibodies against mouse IL-1β (IMGENEX), neutralizing rat antibodies against mouse IL-18 (Medical & Biological Laboratories), isotype control IgGs (R&D Systems or eBioscience as appropriate), Caspase-1 inhibitor Z-WEHD-FMK (R&D Systems), Caspase control inhibitor Z-FA-FMK (R&D Systems), DPI (Enzo Life Sciences), Mito-TEMPO (Enzo Life Sciences), MitoQ and dTPP (both adsorbed to cyclodextrin and provided by M.P. Murphy, MRC Mitochondrial Biology Unit), and gp91ds-tat and scrambled gp91 ds-tat (both Anaspec), were dissolved in phosphate buffered saline (PBS; Sigma-Aldrich) or dimethyl sulfoxide (DMSO; Sigma-Aldrich), and injected into the vitreous humor in a total volume of 1 μL with a 33-gauge Exmire microsyringe (Ito Corporation). […] As a control, Luc siRNA-chol (17+2 nt) was used with identical dosages.

| Substance | pAlu-induced IL-18 maturation (IL-18) | pAlu-induced IL-18 maturation (IL-18; listed as Caspase-1 peptide inhibitor) | loss of cell viability in Dicer1 f/f mouse RPE cells treated with Ad-Cre [1] | Alu RNA-induced RPE degeneration (RPE) |
| --- | --- | --- | --- | --- |
| Z-WEHD-FMK | blocked IL-18 maturation | impaired |  |  |
| DRQIKIWFQNRRMKWKKRDVLPGT [MyD88 inhibitory peptide] |  |  | rescues | prevented RPE degeneration |
